Reference: patent US20250275539A1, “APYRASE INHIBITORS” (Texas Crop Science, Inc., priority 2024, published 2025)
Where two headings read alike, the source gives them in different places.

Key:
[1] = test system: Brown Rust (Puccinia recondita) on wheat; assay: Greenhouse crop test: control of Brown Rust on wheat in combination with commercial fungicides; assay type: in vivo; conditions: wheat JB Diego, inoculated 24 hours after treatment, evaluated at fourteen days; for Amistar (% control of the disease, compound + fungicide): with Amistar 0.04 L/ha; for Balaya (% control of the disease, compound + fungicide): with Balaya 0.25 L/ha; for Imtrex (% control of the disease, compound + fungicide): with Imtrex 0.45 L/ha; for Proline (% control of the disease, compound + fungicide): with Proline 0.15 L/ha
Description: In this method, exemplary compounds were evaluated for their ability to control Brown Rust (Puccinia recondita) on wheat in a controlled greenhouse environment in combination with one of four fungicides, Amistar, Imtrex, Proline or Balaya. In these studies, wheat plants (JB Diego) were used. Seeds were sown in 9 cm diameter pots to a depth of 1 to 2 cm using Petersfield potting compost (75% medium grade peat, 12% screened sterilized loam, 3% medium grade vermiculite, 10% grit (5 mm screened, lime free), 1.5 kg PG mix per m3, lime to pH5.5-6.0 and wetting agent (Vitax Ultrawet 200 ml per m3) and germinated/grown at 23 C under a 16 h day/8 h night light regime. Plants were treated two to three weeks after sowing when they were at the BBCH 11 growth stage ([…]). Wheat plants were inoculated with Puccinia triticina (Brown rust) 24 hours after treatment. A track sprayer was used to treat the plants with the mixture of commercial fungicide and test compound using a water volume of 200 L/ha. Four replicates were used for each combination of fungicide, pathogen and test compound. Each plant was evaluated at fourteen days (once the disease symptoms were fully expressed) for % control of the disease. Appropriate controls were used for all experiments, including an ‘inoculation check’ wherein plants were inoculated with their specific pathogen to assess disease levels. Also, each commercial fungicide was tested on its own as a part of each treatment, this being benchmark against which the experimental compounds were evaluated. […] That is, the present compounds, although not fungicidal by themselves, enhance the activity of fungicides, thus the enhancer compounds work synergistically in combination with fungicides to control disease. • Amistar (0.04 L/ha) • Imtrex (0.45 L/ha) • Proline (0.15 L/ha) • Balaya (0.25 L/ha)

apyrase = assay: Apyrase inhibition assay (screen for apyrase inhibitors, phosphate release read at 630 nm); assay type: biochemical; conditions: inhibitor conc at 1 mM (10 μl added), 3 mM ATP, pH 6.5, room temperature 1 hr
Description: Apyrase inhibitors useful as enhancers of pesticidal activity are assessed using an in vitro assay. The method of Windsor, Bio Techniques 33:1024-1030 (November 2002) was used as follows
• 96 well plates were used for the assay: (Greiner bio-one: REF-655901-96 well, PS, F-bottom, Clear, Non-binding)
• Reaction Buffer: 60 mM Hepes; 3 mM MgCl2, 3 mM CaCl2) and 3 mM ATP (pH 6.5) • Development Buffer A: 2% aqueous ammonium molybdate • Development Buffer B: 11% ascorbic acid in 37.5% TCA in water • Stop buffer C: 2% trisodium citrate in 2% acetic acid solution in water
• Add 100 μl of reaction buffer to each well. • Add 10 μl of DMSO (control) or inhibitor/compound or compounds such as N1915 or orthovanadate to each well. (use inhibitor conc at 1 mM; orthovanadate at 2 mM and N1915 at 1 mM) • Add 10 μl of apyrase (concentration based on optimization—Dilute 1 U/μl enzyme to different concentrations such as 0.1 U, 0.05 U, 0.0025, 0.001 U, 0.0005 U—to find a good range) • Incubate plate at room temperature for 1 hr • Mix development buffer A and B in the ratio of 1:1.5 (just before use). • Add 50 μl of A: B mix in each well (incubate for 2 mins) • Add 50 μl of C in each well • Measure/Read Absorbance of plate @630 nm
Inhibitory data for the apyrase assay described above are provided for selected compounds in Table 3. D is inhibition of 0% to 10%, C is inhibition from 10% to 20%, B is inhibition from 20% to 30%, and A is inhibition above 30%. Blank entries signify compounds that were not tested.

[2] = test system: Amaranthus retroflexus (pigweed); assay: Enhancement of herbicide activity: pre-emergence Amaranthus kill with metribuzin; assay type: in vivo; conditions: Amaranthus retroflexus
Description: Specifically, Amaranthus retroflexus (pigweed) was treated pre-emergence with metribuzin alone or in combination with an enhancer compound disclosed herein. Fifteen seeds of Amaranthus retroflexus were sown in soil in each pot and then sprayed with a mixture of metribuzin at the appropriate rate shown in Table 5 and the compound of this invention at 100 g/ha using a track sprayer at a water volume of 200 L/hectare. Small amounts of acetone were used to aid solubility. The pots were watered immediately after sowing and treatment and then allowed to stand in a glasshouse. Assessment of kill was made seven and fourteen days after treatment. The test included four replicates for each treatment and the control.

Compound	Inhibition (apyrase)	also measured
Cc1cccc(NS(=O)(=O)c2ccc(C3CCCCC3)cc2)c1 [Compound A-64, 4-cyclohexyl-N-(m-tolyl)benzenesulfonamide]	A (A is inhibition above 30%)	Amistar (% control of the disease, compound + fungicide) [1]: 69.5%; Balaya (% control of the disease, compound + fungicide) [1]: −75.9%; Imtrex (% control of the disease, compound + fungicide) [1]: −15.4%; Proline (% control of the disease, compound + fungicide) [1]: 2.9%
O=S(=O)(Nc1ccc2c(c1)CCCN2)c1ccc(-c2ccccc2)cc1 [Compound A-99, N-(1,2,3,4-tetrahydroquinolin-6-yl)-[1,1′-biphenyl]-4-sulfonamide]	A (A is inhibition above 30%)	Amistar (% control of the disease, compound + fungicide) [1]: 71.4%; Balaya (% control of the disease, compound + fungicide) [1]: 84.1%; Imtrex (% control of the disease, compound + fungicide) [1]: 16.1%; Proline (% control of the disease, compound + fungicide) [1]: 5.7%
O=S(=O)(Nc1cccc(Cl)c1N1CCOCC1)c1ccc(-c2ccccc2)cc1 [Compound A-116, N-(3-chloro-2-morpholinophenyl)-[1,1′-biphenyl]-4-sulfonamide]	A (A is inhibition above 30%)	Amistar (% control of the disease, compound + fungicide) [1]: 68.0%; Balaya (% control of the disease, compound + fungicide) [1]: 24.2%; Imtrex (% control of the disease, compound + fungicide) [1]: 48.4%; Proline (% control of the disease, compound + fungicide) [1]: 14.6%
CSc1nnc(C(C)(C)C)c(=O)n1N [None (metribuzin only), metribuzin, reference compound]		pest or weed control at 100 g/ha ([2]; 168 h, read-out: Pre-Emergence Amaranthus Kill Percentage, Assessed 7 DAT, Metribuzin rate 50 g/ha): 0%; pest or weed control at 100 g/ha ([2]; 168 h, read-out: Pre-Emergence Amaranthus Kill Percentage, Assessed 7 DAT, Metribuzin rate 100 g/ha): 15.2%; pest or weed control at 100 g/ha ([2]; 168 h, read-out: Pre-Emergence Amaranthus Kill Percentage, Assessed 7 DAT, Metribuzin rate 200 g/ha): 60.9%; pest or weed control at 100 g/ha ([2]; 336 h, read-out: Pre-Emergence Amaranthus Kill Percentage, Assessed 14 DAT, Metribuzin rate 50 g/ha): 7.7%; pest or weed control at 100 g/ha ([2]; 336 h, read-out: Pre-Emergence Amaranthus Kill Percentage, Assessed 14 DAT, Metribuzin rate 100 g/ha): 38.3%; pest or weed control at 100 g/ha ([2]; 336 h, read-out: Pre-Emergence Amaranthus Kill Percentage, Assessed 14 DAT, Metribuzin rate 200 g/ha): 74%
CCCc1ccc(S(=O)(=O)Nc2ccc(N3CCCS3(=O)=O)cc2)cc1 [Compound A-30, N-(4-(1,1-dioxidoisothiazolidin-2-yl)phenyl)-4-propylbenzenesulfonamide]	C (C is inhibition from 10% to 20%)	
CCCc1ccc(S(=O)(=O)Nc2ccc(S(=O)(=O)CC)cc2)cc1 [Compound A-32, N-(4-(ethylsulfonyl)phenyl)-4-propylbenzenesulfonamide]	C (C is inhibition from 10% to 20%)	
Cc1cccc(NS(=O)(=O)c2ccc(C(=O)NCC(F)(F)F)cc2)c1 [Compound A-66, 4-(N-(m-tolyl)sulfamoyl)-N-(2,2,2-trifluoroethyl)benzamide]	C (C is inhibition from 10% to 20%)	
CCCc1ccc(S(=O)(=O)Nc2ccc(CC(C)C(=O)O)cc2)cc1 (stereo not drawn) [Compound A-19, 2-methyl-3-(4-((4-propylphenyl)sulfonamido)phenyl)propanoic acid]	B (B is inhibition from 20% to 30%)	
Cc1cccc(NS(=O)(=O)c2ccc(C=CC(=O)O)cc2)c1 [Compound A-61, 3-(4-(N-(m-tolyl)sulfamoyl)phenyl)acrylic acid]	D (D is inhibition of 0% to 10%)	
CCCc1ccc(S(=O)(=O)Nc2cccc(F)c2C(=O)O)cc1 [Compound A-42, 2-fluoro-6-((4-propylphenyl)sulfonamido) benzoic acid]	B (B is inhibition from 20% to 30%)	
Cc1cccc(NS(=O)(=O)c2ccc(OC(F)(F)F)cc2)c1 [Compound A-63, N-(m-tolyl)-4-(trifluoromethoxy)benzenesul-fonamide]	C (C is inhibition from 10% to 20%)	
CCCc1ccc(S(=O)(=O)Nc2ccc(F)c(NC(C)=O)c2)cc1 [Compound A-35, N-(2-fluoro-5-((4-propylphenyl)sulfonamido)phenyl)acetamide]	D (D is inhibition of 0% to 10%)	
CCCc1ccc(S(=O)(=O)Nc2c(F)cccc2CO)cc1 [Compound A-16, N-(2-fluoro-6-(hydroxymethyl)phenyl)-4-propylbenzenesulfonamide]	C (C is inhibition from 10% to 20%)	
CCCc1ccc(S(=O)(=O)Nc2ccc(S(C)(=O)=O)cc2)cc1 [Compound A-50, N-(4-(methylsulfonyl)phenyl)-4-propylbenzenesulfonamide]	C (C is inhibition from 10% to 20%)	
CCCc1ccc(S(=O)(=O)Nc2ccccc2Sc2nncn2C)cc1 [Compound A-27, N-(2-((4-methyl-4H-1,2,4-triazol-3-yl)thio)phenyl)-4-propylbenzenesulfonamide]	D (D is inhibition of 0% to 10%)	

Now from value to molecule, other results behind:

Inhibition (apyrase)	Compound	also measured
B (B is inhibition from 20% to 30%)	CCCc1ccc(S(=O)(=O)Nc2ccccc2Cc2ccccc2)cc1 [Compound A-91, N-(2-benzylphenyl)-4-propylbenzenesulfonamide]	
B (B is inhibition from 20% to 30%)	CCCCc1ccc(NS(=O)(=O)c2ccc(CCC)cc2)cc1 [Compound A-83, N-(4-butylphenyl)-4-propylbenzenesulfonamide]	
D (D is inhibition of 0% to 10%)	CCCc1ccc(S(=O)(=O)Nc2cccc(C(=O)O)c2)cc1 [Compound A-75, 3-((4-propylphenyl)sulfonamido) benzoic acid]	
C (C is inhibition from 10% to 20%)	CCCc1ccc(S(=O)(=O)Nc2ccccc2-c2nncn2C)cc1 [Compound A-107, N-(2-(4-methyl-4H-1,2,4-triazol-3-yl)phenyl)-4-propylbenzenesulfonamide]	
C (C is inhibition from 10% to 20%)	CCCc1ccc(S(=O)(=O)Nc2cccc(CN3CCOC3=O)c2)cc1 [Compound A-110, N-(3-((2-oxooxazolidin-3-yl)methyl)phenyl)-4-propylbenzenesulfonamide]	
C (C is inhibition from 10% to 20%)	CCCc1ccc(S(=O)(=O)Nc2cc(OC)c(OC)cc2C(=O)OC)cc1 [Compound A-96, methyl 4,5-dimethoxy-2-((4-propylphenyl)sulfonamido) benzoate]	
D (D is inhibition of 0% to 10%)	CCCc1ccc(S(=O)(=O)Nc2cccc(NC(C)=O)c2)cc1 [Compound A-77, N-(3-((4-propylphenyl)sulfonamido)phenyl)acetamide]	
D (D is inhibition of 0% to 10%)	CCCc1ccc(S(=O)(=O)Nc2ccc(-c3nnc4n3CCCCC4)cc2)cc1 [Compound A-93, 4-propyl-N-(4-(6,7,8,9-tetrahydro-5H-[1,2,4]triazolo[4,3-a]azepin-3-yl)phenyl) benzenesulfonamide]	
D (D is inhibition of 0% to 10%)	CCCc1ccc(S(=O)(=O)Nc2ccc(Cn3cccn3)cc2)cc1 [Compound A-111, N-(4-((1H-pyrazol-1-yl)methyl)phenyl)-4-propylbenzenesulfonamide]	
D (D is inhibition of 0% to 10%)	CCCc1ccc(S(=O)(=O)Nc2ccccc2Cl)cc1 [Compound A-71, N-(2-chlorophenyl)-4-propylbenzenesulfonamide]	
